The values below come from patent US10144745B2, “Chimeric compounds targeting proteins, compositions, methods, and uses thereof” (BioTheryX, Inc., priority 2016, dated 2018).

Molecules are shown by their SMILES. Where only a bound is given, the exact number is not on record here.

One experiment has as its system Daudi cells. Nature of the experiment: Daudi Cell Proliferation (WST-1 cell viability). The format is cell-based. The following applies: Homo sapiens, 96 h; Daudi cells (Burkitt lymphoma cell line), treated for 4 days, viability by WST-1 relative to vehicle control. The method, then: Daudi cells, a Burkitt lymphoma cell line, was treated for 4 days with the indicated compound (10 nM, 100 nM, 1 μM, 10 μM, and 100 μM) or vehicle (DMSO), and cell viability was determined using the WST-1 tetrazolium reagent (Roche), and results were expressed as the percentage viability relative to the vehicle control, which was set at 100%. Based on resulting data, an IC50 was calculated for each compound.
IC50 values less than or equal to 2 μM are represented by “A;” IC50 values greater than 2 μM and less than or equal to 30 μM are represented by “B;” and IC50 values greater than 30 μM are represented by “C.”
A general note: Tetrazolium dyes change colour on reduction, which living cells bring about.

A further experiment concerns the target T1, FGFR (G697C) (Homo sapiens, UniProt P22607, G697C).
T1 construct: made in house
Nature of the experiment: Kinase Inhibition Assay (kinase-tagged phage / affinity bead competition binding, qPCR). The conditions noted are these: Compounds were tested at 500 nM; read-out: FGFR (G697C) (Percent Control). The method, then: (§1) Kinase-tagged T7 phage strains were grown in parallel in 24-well blocks in an E. coli host derived from the BL21 strain. E. coli were grown to log-phase and infected with T7 phage from a frozen stock (multiplicity of infection=0.4) and incubated with shaking at 32° C. until lysis (90-150 minutes). The lysates were centrifuged (6,000×g) and filtered (0.2 μm) to remove cell debris. The remaining kinases were produced in HEK-293 cells and subsequently tagged with DNA for qPCR detection. Streptavidin-coated magnetic beads were treated with biotinylated small molecule ligands for 30 minutes at room temperature to generate affinity resins for kinase assays. The liganded beads were blocked with excess biotin and washed with blocking buffer (SeaBlock (Pierce), 1% BSA, 0.05% Tween 20, 1 mM DTT) to remove unbound ligand and to reduce non-specific phage binding.
Binding reactions were assembled by combining kinases, liganded affinity beads, and test compounds in 1× binding buffer (20% SeaBlock, 0.17×PBS, 0.05 Tween 20, 6 mM DTT). Test compounds were prepared as 40× stocks in 100% DMSO and directly diluted into the assay. All reactions were performed in polypropylene 384-well plates in a final volume of 0.02 mL. The assay plates were incubated at room temperature with shaking for 1 hour and the affinity beads were washed with wash buffer (1×PBS, 0.05% Tween 20). […]

The target of the next experiment is T2, FES (Homo sapiens, UniProt P07332).
T2 construct: made in house
Described as above. The conditions noted are these: Compounds were tested at 500 nM; read-out: FES (Percent Control). The procedure: as §1, with “Streptavidin-coated magnetic beads were treated with biotinylated small molecule ligands for 30 minutes at room temperature to generate affinity resins for kinase assays.” left out
Test compounds were prepared as 40× stocks in 100% DMSO and directly diluted into the assay. […] The kinase concentration in the eluates was measured by qPCR.

T1 sequence (P22607 23-806 G697C): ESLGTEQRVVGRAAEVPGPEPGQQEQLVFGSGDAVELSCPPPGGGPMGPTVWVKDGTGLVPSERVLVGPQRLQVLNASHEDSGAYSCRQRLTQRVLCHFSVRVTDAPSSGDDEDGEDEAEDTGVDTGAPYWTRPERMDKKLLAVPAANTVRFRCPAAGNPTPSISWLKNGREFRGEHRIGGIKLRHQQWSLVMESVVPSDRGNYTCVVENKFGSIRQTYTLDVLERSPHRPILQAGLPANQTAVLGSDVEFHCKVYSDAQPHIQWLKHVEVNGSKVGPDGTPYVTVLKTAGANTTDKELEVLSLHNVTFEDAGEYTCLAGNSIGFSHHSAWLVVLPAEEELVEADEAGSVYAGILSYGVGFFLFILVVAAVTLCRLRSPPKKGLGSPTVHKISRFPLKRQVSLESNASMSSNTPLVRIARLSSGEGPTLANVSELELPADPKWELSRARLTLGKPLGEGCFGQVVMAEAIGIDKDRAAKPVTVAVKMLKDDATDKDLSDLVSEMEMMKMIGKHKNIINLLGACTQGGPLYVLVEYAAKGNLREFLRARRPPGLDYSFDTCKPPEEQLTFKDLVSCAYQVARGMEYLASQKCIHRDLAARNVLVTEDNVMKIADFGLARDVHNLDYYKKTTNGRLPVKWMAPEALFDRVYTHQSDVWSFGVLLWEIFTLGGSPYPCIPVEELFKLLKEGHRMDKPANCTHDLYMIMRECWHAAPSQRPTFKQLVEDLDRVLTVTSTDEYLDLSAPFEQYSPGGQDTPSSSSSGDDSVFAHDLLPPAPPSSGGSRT
T2 sequence (P07332 whole entry, species assumed): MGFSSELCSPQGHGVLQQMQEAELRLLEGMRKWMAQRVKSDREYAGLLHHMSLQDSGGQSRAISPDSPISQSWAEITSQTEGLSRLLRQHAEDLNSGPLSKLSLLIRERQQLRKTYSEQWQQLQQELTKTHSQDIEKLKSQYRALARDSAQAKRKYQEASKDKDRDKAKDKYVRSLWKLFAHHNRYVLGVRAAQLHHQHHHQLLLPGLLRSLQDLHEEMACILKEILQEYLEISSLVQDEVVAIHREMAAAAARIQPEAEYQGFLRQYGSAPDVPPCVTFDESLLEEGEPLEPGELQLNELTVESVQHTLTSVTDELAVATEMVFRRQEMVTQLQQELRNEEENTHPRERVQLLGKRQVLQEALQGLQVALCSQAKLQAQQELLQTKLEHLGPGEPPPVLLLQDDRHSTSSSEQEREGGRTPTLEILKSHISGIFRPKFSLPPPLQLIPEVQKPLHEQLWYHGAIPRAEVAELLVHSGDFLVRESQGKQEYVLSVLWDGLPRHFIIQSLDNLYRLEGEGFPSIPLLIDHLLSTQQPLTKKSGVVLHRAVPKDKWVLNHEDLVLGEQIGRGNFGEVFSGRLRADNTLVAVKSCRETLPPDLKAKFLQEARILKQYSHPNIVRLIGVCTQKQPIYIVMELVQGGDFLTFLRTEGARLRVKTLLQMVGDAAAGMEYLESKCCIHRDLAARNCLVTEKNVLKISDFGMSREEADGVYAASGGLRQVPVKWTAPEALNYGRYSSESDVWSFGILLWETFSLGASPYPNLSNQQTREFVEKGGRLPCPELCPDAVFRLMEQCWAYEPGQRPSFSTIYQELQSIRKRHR

By IC50 is commonly meant the concentration that gives 50% inhibition. A low value points to inhibition by little substance. Consider `O=C1CCC[C@H](N2Cc3c(cccc3C(F)F)C2=O)C(=O)N1` [Compound 42, (S)-3-(4-(Difluoromethyl)-1-oxoisoindolin-2-yl)azepane-2,7-dione], for which the IC50 in the experiment with Daudi cells was in the range of 2 to 30 µM.
Still for that read-out and setting: in the case of `C=C(C)c1cccc2c1CN([C@H]1CCCC(=O)NC1=O)C2=O` [Compound 43, (S)-3-(1-Oxo-4-(prop-1-en-2-yl)isoindolin-2-yl)azepane-2,7-dione] it was not above 2 µM.
`CC(C)c1cccc2c1CN([C@H]1CCCC(=O)NC1=O)C2=O` [Compound 45, (S)-3-(4-Isopropyl-1-oxoisoindolin-2-yl)azepane-2,7-dione] gave an IC50 with Daudi cells of more than 30 µM.
Take `Cc1cnc(Nc2ccc(OCCN3CCCC3)cc2)nc1Nc1cccc(S(=O)(=O)NC(C)(C)C)c1` [Fedratinib, reference compound]: the remaining binding at 0.5 µM at FGFR (G697C) amounted to 57%.
In the experiment on Daudi cells, `Nc1cccc2c1CN(C1CCC(=O)NC1=O)C2=O` (stereo not shown) [Lenalidomide, reference compound] showed an IC50 of more than 30 µM.
On to `Cc1cnc(Nc2ccc(OCCCNCC(=O)Nc3cccc4c3CN([C@H]3CCCC(=O)NC3=O)C4=O)cc2)nc1Nc1cccc(S(=O)(=O)NC(C)(C)C)c1` [Compound 66, (S)-2-((3-(4-((4-((3-(N-(tert-Butyl)sulfamoyl)phenyl)amino)-5-methylpyrimidin-2-yl)amino)phenoxy)propyl)amino)-N-(2-(2,7-dioxoazepan-3-yl)-1-oxoisoindolin-4-yl)acetamide], for which the remaining binding at 0.5 µM at FES came to 15%; on FGFR (G697C), 4.8%.
